In PubChem BioAssay (NCI):
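In this assay, cells in 96-well plates receive the compound at five concentrations for 48 hours. Endpoints are linearly interpolated between the surrounding concentrations. GI50 is the concentration that inhibits growth by half. Definition used: TGI = concentration required for complete inhibition of growth.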

Key:
Test in all cases: NCI-60 cell line screen, 48 h
OVCAR-4 ovarian = test system: OVCAR-4 ovarian
HCT-116 colon = test system: HCT-116 colon
RXF 393 renal = test system: RXF 393 renal
A549 NSCLC = test system: A549 NSCLC
HL-60(TB) leukemia = test system: HL-60(TB) leukemia
K-562 leukemia = test system: K-562 leukemia
SK-MEL-28 melanoma = test system: SK-MEL-28 melanoma
NCI/ADR-RES ovarian = test system: NCI/ADR-RES ovarian
UACC-62 melanoma = test system: UACC-62 melanoma
MDA-N = test system: MDA-N

Row | SMILES | GI50 (OVCAR-4 ovarian) [µM] | TGI (OVCAR-4 ovarian) [µM] | GI50 (HCT-116 colon) [µM] | TGI (HCT-116 colon) [µM] | GI50 (RXF 393 renal) [µM] | TGI (RXF 393 renal) [µM] | GI50 (A549 NSCLC) [µM] | TGI (A549 NSCLC) [µM] | GI50 (HL-60(TB) leukemia) [µM] | TGI (HL-60(TB) leukemia) [µM] | GI50 (K-562 leukemia) [µM] | TGI (K-562 leukemia) [µM] | GI50 (SK-MEL-28 melanoma) [µM] | TGI (SK-MEL-28 melanoma) [µM] | GI50 (NCI/ADR-RES ovarian) [µM] | TGI (NCI/ADR-RES ovarian) [µM] | GI50 (UACC-62 melanoma) [µM] | TGI (UACC-62 melanoma) [µM] | TGI (MDA-N) [µM]
1 | Cc1nnc2n1N=C(c1ccc(Cl)cc1Cl)/C(=C/c1ccc(-c3ccc([N+](=O)[O-])cc3Cl)o1)S2 | 33.4 | > 100 | 12.3 | 24.8 | 11.5 | 25.1 | 31.7 | > 100 | 25.1 | 62.9 | 13.6 | 26.9 | 57.3 | > 100 | 18.4 | 37.4 | 18.4 | 39.9 | –
2 | COc1ccc(C(=O)CC(c2ccccc2)[C@H]2C(c3ccc(OC)cc3)=Nc3c(nc(SC)n(C)c3=O)NC2c2ccccc2)cc1 (some centres not stated) | – | – | – | > 100 | – | > 100 | – | > 100 | – | – | – | > 100 | – | > 100 | – | > 100 | – | > 100 | > 100
3 | C/C(=N\NC(=S)N(C)C)c1cccnn1 | – | > 100 | – | > 25.9 | – | – | – | – | – | > 100 | – | > 100 | – | > 100 | – | 36.6 | – | 4.89 | > 74.2
4 | O=C1NC(=O)C(C(CC(=O)c2ccc(Cl)cc2)c2ccc(Cl)cc2)C(=O)N1 (configuration not stated) | – | > 100 | – | > 100 | – | – | – | > 100 | – | > 100 | – | > 100 | – | > 100 | – | – | – | > 100 | > 100
5 | CN(C)CCn1c(CO)nc2c1c(=O)n(C)c(=O)n2C | – | > 100 | – | > 100 | – | > 100 | – | > 100 | – | > 100 | – | > 100 | – | > 100 | – | > 100 | – | > 100 | –
6 | NNC(=O)C1(NC(=O)c2ccccc2)C(c2ccccc2)C(c2ccccc2)=NN1c1ccccc1 (configuration not stated) | – | > 100 | – | > 100 | – | 53.4 | – | > 100 | – | – | – | > 100 | – | > 100 | – | > 100 | – | 56.9 | 57.9
7 | CN=C(/N=c1\ssc(=NC)n1C)N(C)C | – | > 100 | – | – | – | > 100 | – | > 100 | – | > 100 | – | > 100 | – | > 100 | – | – | – | > 100 | –
8 | O=C1C=CC(=O)c2c(O)c(NCCOCCO)c(Cl)c(O)c21 | – | 5.91 | – | 8.32 | – | 27.1 | – | 19.1 | – | > 100 | – | > 100 | – | – | – | – | – | 11.7 | –
9 | CN1CC2=C(NC(=S)NC2c2ccccc2)/C(=C/c2ccccc2)C1 (configuration not stated) | – | – | – | 63.3 | – | – | – | > 100 | – | > 10 | – | > 100 | – | 94.3 | – | > 100 | – | > 100 | > 100
10 | CC(C)(C)[Si](C)(C)OCc1cccc(OCCOc2cccc(CO[Si](C)(C)C(C)(C)C)c2[N+](=O)[O-])c1[N+](=O)[O-] | – | > 100 | – | > 100 | – | > 100 | – | > 100 | – | > 100 | – | – | – | > 100 | – | > 100 | – | > 100 | > 100
11 | Cn1c(-c2ccc(/C=N/NC(=S)N/N=C/c3ccc(-c4c[n+]5ccsc5n4C)cc3)cc2)c[n+]2ccsc12 | – | > 100 | – | > 100 | – | – | – | > 100 | – | > 100 | – | – | – | > 100 | – | > 100 | – | – | > 100
12 | Cc1ccccc1-c1nc2c(C(=O)NCCN(C)C)cccc2[nH]1 | – | > 100 | – | > 100 | – | > 100 | – | > 100 | – | > 74.6 | – | > 61.1 | – | > 100 | – | > 100 | – | > 100 | –
